{
  "source": "patent US20220257698A1",
  "about": "“ANGIOTENSIN TYPE 2 (AT2) RECEPTOR AGONISTS FOR USE IN THE TREATMENT OF CANCER” (LANTHIOPEP B.V., priority 2019, published 2022)",
  "tested_on": "U87MG glioblastoma CDX",
  "test": "Subcutaneous U87MG glioblastoma CDX: tumor weight and time of tumor progression",
  "format": "in vivo, cd1 nu/nu mice (human GBM cell line)",
  "details": "for tumor weight [%]: relative to vehicle = 100",
  "experimental": "Effects of KcAng(1-7) were evaluated in vivo in a subcutaneous GBM xenograft model in nude mice. Insurgence of neurologic phenomena and differences in the survival rates were evaluated. Human GBM cell lines U87MG and U251MG were used. Cell lines were grown in DMEM nutrient mixture supplemented with 10% fetal bovine serum, 1% penicillin/streptomycin, and 25 mM HEPES buffer. All cell lines were cultured at 37° C. in a humidified atmosphere consisting of 5% CO2 and 95% air. Medium was changed every 2 days and the cell morphology was evaluated under microscope daily.\nSix-week-old male athymic nude mice (age 5-7 weeks) were housed with free access to food and water in a temperature-controlled room. Each group is represented by 10 xenograft cd1 nu/nu mice. The mice were injected s.c. in the right distal hind limb with one million of cultured human tumor cell lines suspended in 0.15 mL of 2:1 solution of PBS/Matrigel (Matrigel BD Biosciences). Xenografts were measured every four days with a digital caliper in two perpendicular dimensions. Tumor volume was calculated according to the following formula:\nTumor volume=(tumor width)×(tumor width)×(tumor length)÷2\nAt the end of experiments, mice were euthanized and tumors removed. Weight loss or other signs of distress such as hunched posture were checked during and after treatments.\nEfficacy of treatment was evaluated by: (1) the size of tumors (vehicle control and treated), (2) the relative weight at the end of experiment, and (3) the indirect evaluation of angiogenesis by determining hemoglobin levels.\nIn vivo tumor response to treatment was evaluated using the following parameters: (i) Complete response (CR): defined as the disappearance of a measurable lesion, (ii) Partial response (PR): defined as a reduction of greater than 50% of the sum of the products of the cross-sectional diameters of the measurable lesion, (iii) Stable disease (SD): defined as a reduction of less than 50% or an increase of less than 25% in the sum of the products of the cross-sectional diameters of the measurable lesions, (iv) Tumor progression (TP): defined as an increase of greater than […] in the sum of the products of the cross-sectional diameters of the measured lesion, (v) Time to progression (TTP) defining the tumor growth delay. Tumor progression was calculated through the analysis of bioluminescence imaging (BLI) photon counts and when possible through the analyses of tumor volumes calculated by magnetic resonance imaging (MRI), (vi) Disease free survival (DFS) is the time elapsed between the time point at which no luciferase activity is detectable anymore and the death of the animal, (vii) Overall survival (OS) is the time elapsed between tumor inoculation and death of the animal. […] Luciferase transfected cells were used for bioluminescence evaluations.\nData are presented as mean and standard error of the mean (SEM) or standard deviation (SD). Statistical comparisons between control and treated groups were established by carrying out the Kruskal-Wallis test (a nonparametric one-way analysis of variance) or the Mann-Whitney test (in the case of two groups). The level of significance was corrected by multiplying the P value by the number of comparisons performed (n) according to […] correction. TP, TTP and DFS were analyzed by Kaplan-Meier curves and Gehan's generalized Wilcoxon test. All statistical analyses were undertaken using SPSS 10.0.\nMice with U87MG cell CDX were randomized at day 0. KcAng(1-7) was injected daily subcutaneously (0.2 μg/kg) starting at day 0 until the (ethical) endpoint maximally at day 42. TMZ was administered at 16 mg/kg during 5 consecutive days, that is from […]. Volumetric evaluation of the tumor was performed every 4 days and tumor weight was measured at the end of the experiment.\nSynergism was determined using the methods described in Clarke et al. Breast Cancer Research and Treatment 46:255-278 (1997).\nMice with U87MG cell CDX were randomized at day 0. […]",
  "data": [
    {"substance": "Lys-Asp-Arg-Val-Abu/Ala-Ile-His-Abu/Ala (KDRVAIHA; not fully specified; cyclic thioether (Abu/Ala bridge); VARIANT (5)..(5) /replace=“Abu”; VARIANT (8)..(8) /replace=“Abu”; SITE (1)..(8) /note=“Variant residues given in the sequence have no preference with respect to those in the annotations for variant positions”) [KcAng(1-7)]", "values": [
      {"measurement": "Time of tumor progression - TTP, mean (days ± SD)", "setting": "KcAng(1-7) 0.2 μg/kg/d s.c., TMZ 16 mg/kg for 5 days, or both", "value": "12.80 ± 0.54", "unit": "days"},
      {"measurement": "increase of the time of tumor progression", "setting": "KcAng(1-7) 0.2 μg/kg/d vs vehicle", "value": "approximately 2 days"},
      {"measurement": "Time of tumor progression - TTP, mean (days ± SEM)", "setting": "KcAng(1-7) 1 μg/kg/d s.c., Losartan 20 mg/kg/d i.p., or both", "value": "15.2 ± 0.9", "unit": "days"},
      {"measurement": "Tumor weight, mean (mg ± SEM)", "setting": "KcAng(1-7) 1 μg/kg/d s.c., Losartan 20 mg/kg/day i.p., or both", "value": "580 ± 27", "unit": "mg"},
      {"measurement": "Tumor weight, mean (mg ± SD)", "setting": "end of experiment, KcAng(1-7) 0.2 μg/kg/d s.c., TMZ 16 mg/kg for 5 days, or both", "value": "830 ± 57", "unit": "mg"},
      {"measurement": "tumor weight [%]", "setting": "KcAng(1-7) 0.2 μg/kg/d, TMZ 16 mg/kg, or both", "value": 79.8, "unit": "%"},
      {"measurement": "tumor weight [%]", "setting": "KcAng(1-7) 1 μg/kg/d, Losartan 20 mg/kg/d, or both", "value": 55.8, "unit": "%"}
    ]}
  ]
}
